According to PubChem BioAssay AID2060513 (Molecular Pharmacology Branch, DTP, NCI, 2025):
pIC50: −log10 of the molar value.

Test system: 299254-011-R-J1-PDC complex spheroids viability
Experiment: Anticancer human tumor 299254-011-R-J1-PDC patient-derived melanoma cell line growth inhibition [GQUAD]
Settings: for pIC50: curve of first compound; for viability, T/C: stronger effect = lower value
Text: DNA G-quadruplex Stabilizer Agents in Combinations in Complex Spheroids
A high-throughput screen of multi-cell type tumor spheroids was designed to identify active combinations of DNA G-quadruplex stabilizer agents and targeted small molecules. Complex spheroids include a stromal component modeled by human endothelial cells (HUVEC) and fibroblasts modeled by human mesenchymal stem cells (MSCs). The concentration ranges selected for each drug and investigational agent were based upon clinically achievable concentrations if the clinical Cmax of the agent was known.
Compounds. The drugs and investigational agents: pidnarulex (CX-5461; NSC782164), APTO-253 (NSC789042), BRACO-19 (NSC847499), peposertib (NSC802822), ceralasertib (NSC780249), elimusertib (NSC800525), camonsertib (NSC841442), AZD-1390 (NSC803789), olaparib (NSC753686), talazoparib (NSC767125), ART-558 (NSC835418), sotorasib (NSC818433), MRTX-1133 (NSC836407), SN-38 (NSC673596), topotecan (NSC609699), etoposide (NSC141540), doxorubicin (NSC123127), gemcitabine (NSC613327), 5-fluorouracil (NSC19893), paclitaxel (NSC125973), vemurafenib (NSC761431), panobinostat (NSC761190), R-306465 (JNJ-16241199; NSC773264), adavosertib (NSC754352), TP-3654 (NSC805149), carboplatin (NSC241240), KSQ-4279 (NSC840948), and staurosporine (NSC755774) were obtained from the National Cancer Institute (NCI) Developmental Therapeutics Program Chemical Repository (34). The FDA-approved anticancer drug set is available from the NCI Developmental Therapeutics Program. […] The stock solutions were prepared in dimethyl sulfoxide (DMSO, Sigma-Aldrich, St. Louis, MO, cat. D2650) at 800-fold the tested concentration and stored at -70 degrees C prior to their use. All drugs and investigational agents were tested over a range starting from a high concentration at or near the clinical Cmax and decreasing in half-log increments. If the clinical Cmax for an agent had not been determined, the highest concentration tested was 10 microM.
2.3 Cell Culture. All cells were maintained in an incubator at 37 degrees C and 5% CO2 with 95% humidity. The PDC lines were cultured according to standard operating procedures established by the NCI PDMR. All PDCs were thawed and cultured in Matrigel-coated flasks prepared with a working solution of 1X Ham's F-12 nutrient mix, without supplementation (Invitrogen, cat. 11765054), 100 U/mL penicillin-streptomycin (Invitrogen, cat. 15140122), and 2.5% Matrigel (Corning Inc., cat. 354248) for the first three passages. The 857933-349-R-J2-PDC line was cultured in 6C/Colon 1B media, which includes advanced DMEM/F-12 (Thermo Fisher Scientific, cat. 12634028), 10 mM HEPES (Thermo Fisher Scientific, cat. 15630080), 1X GlutaMAX supplement (Thermo Fisher Scientific, cat. 35050061), 0.1 mg/mL primocin (InvivoGen, cat. ant-pm-2), 10% defined fetal bovine serum, heat inactivated (HyClone Laboratories Inc., cat. SH30070.03HI), 50% L-WRN conditioned media (ATCC, cat. CRL-3276), 1.25 mM N-Acetyl-L-cysteine (Sigma-Aldrich, cat. A9165), 10 mM nicotinamide (Sigma-Aldrich, cat. N0636), 1X B-27 supplement (Thermo Fisher Scientific, cat. 17504044), 1X N-2 supplement (Thermo Fisher Scientific, cat. 17502048), 10 microM Y-27632 dihydrochloride (Tocris Bioscience, cat. 1254), and 50 ng/mL human EGF recombinant protein (Thermo Fisher Scientific, cat. PHG0311). The 485176-168-R4-J1-PDC line was cultured in Panc media, which includes all 6C/Colon 1B media components plus 100 ng/mL human FGF-10 (Thermo Fisher Scientific, cat. 100-26), 500 nM SB-431542 (Selleckchem, cat. S1067), and gastrin (Tocris, cat. 3006).
[…]
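Further: spheroids exposed to the agents for seven days before readout.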
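Wherever viability, T/C is given: percent viability relative to DMSO vehicle control wells = 100%.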

SMILES: CC1COCCN1c1cc(C2(O)CC3CCC(C2)O3)c2cnn(-c3ccn[nH]3)c2n1 (configuration not stated) + CN(C)c1ccc(Nc2c3ccc(NC(=O)CCN4CCCC4)cc3nc3cc(NC(=O)CCN4CCCC4)ccc23)cc1
- pIC50 (second compound 0.0316 µM): 6.85
- pIC50 (second compound 0.1 µM): 7.00
- pIC50 (second compound 0.316 µM): 6.74
- pIC50 (second compound 1 µM): 6.86
- pIC50 (second compound 3.16 µM): 6.83
- pIC50 (second compound 10 µM): 6.93
- viability, T/C (second compound 0.0316 µM, first compound 0.0316 µM): 77.1%
- viability, T/C (second compound 0.0316 µM, first compound 0.1 µM): 60.4%
- viability, T/C (second compound 0.0316 µM, first compound 0.316 µM): 25.2%
- viability, T/C (second compound 0.0316 µM, first compound 1 µM): 18%
- viability, T/C (second compound 0.0316 µM, first compound 3.16 µM): 13.7%
- viability, T/C (second compound 0.0316 µM, first compound 10 µM): 6.37%
- viability, T/C (second compound 0.1 µM, first compound 0.0316 µM): 87%
- viability, T/C (second compound 0.1 µM, first compound 0.1 µM): 51.1%
- viability, T/C (second compound 0.1 µM, first compound 0.316 µM): 24.2%
- viability, T/C (second compound 0.1 µM, first compound 1 µM): 17.4%
- viability, T/C (second compound 0.1 µM, first compound 3.16 µM): 12.4%
- viability, T/C (second compound 0.1 µM, first compound 10 µM): 5.43%
- viability, T/C (second compound 0.316 µM, first compound 0.0316 µM): 82.9%
- viability, T/C (second compound 0.316 µM, first compound 0.1 µM): 73%
- viability, T/C (second compound 0.316 µM, first compound 0.316 µM): 27.6%
- viability, T/C (second compound 0.316 µM, first compound 1 µM): 16.7%
- viability, T/C (second compound 0.316 µM, first compound 3.16 µM): 9.78%
- viability, T/C (second compound 0.316 µM, first compound 10 µM): 5.4%
- viability, T/C (second compound 1 µM, first compound 0.0316 µM): 93.8%
- viability, T/C (second compound 1 µM, first compound 0.1 µM): 59.3%
- viability, T/C (second compound 1 µM, first compound 0.316 µM): 25.9%
- viability, T/C (second compound 1 µM, first compound 1 µM): 17.8%
- viability, T/C (second compound 1 µM, first compound 3.16 µM): 12.5%
- viability, T/C (second compound 1 µM, first compound 10 µM): 5.02%
- viability, T/C (second compound 3.16 µM, first compound 0.0316 µM): 86.8%
- viability, T/C (second compound 3.16 µM, first compound 0.1 µM): 61%
- viability, T/C (second compound 3.16 µM, first compound 0.316 µM): 27.7%
- viability, T/C (second compound 3.16 µM, first compound 1 µM): 19.2%
- viability, T/C (second compound 3.16 µM, first compound 3.16 µM): 14%
- viability, T/C (second compound 3.16 µM, first compound 10 µM): 6.53%
- viability, T/C (second compound 10 µM, first compound 0.0316 µM): 98.5%
- viability, T/C (second compound 10 µM, first compound 0.1 µM): 54%
- viability, T/C (second compound 10 µM, first compound 0.316 µM): 25.9%
- viability, T/C (second compound 10 µM, first compound 1 µM): 13.8%
- viability, T/C (second compound 10 µM, first compound 3.16 µM): 15.2%
- viability, T/C (second compound 10 µM, first compound 10 µM): 7.27%
